Test results from patent US20180002319A1, “MACROCYCLIC PICOLINAMIDE COMPOUNDS WITH FUNGICIDAL ACTIVITY” (DOW AGROSCIENCES LLC, priority 2014, published 2018).

Tests used:
Format in all cases: in vivo
[1] = tested on: Magnaporthe grisea; Anamorph: Pyricularia oryzae; assay: whole plant or invertebrate; conditions: 24 h, read-out: PYRIOR Disease Control
Uncinula necator = assay: Grape Powdery Mildew (UNCINE) fungicidal activity; conditions: Erysiphe necator, 24 h, 1DP (1 Day Protectant), read-out: UNCINE Disease Control
Method: Technical grades of materials were dissolved in acetone, which were then mixed with nine volumes of H2O containing 110 ppm Triton X-100. The fungicide solutions were applied onto wheat seedlings using an automated booth sprayer to run-off. All sprayed plants were allowed to air dry prior to further handling. All fungicides were evaluated using the aforementioned method for their activity vs. all target diseases, unless stated otherwise. Wheat leaf blotch and brown rust activity were also evaluated using track spray applications, in which case the fungicides were formulated as EC formulations, containing 0.1% Trycol 5941 in the spray solutions. Wheat plants (variety Yuma) were grown from seed in a greenhouse in 50% mineral soil/50% soil-less Metro mix until the first leaf was fully emerged, with 7-10 seedlings per pot. These plants were inoculated with an aqueous spore suspension of Zymoseptoria tritici either prior to or after fungicide treatments. After inoculation the plants were kept in 100% relative humidity (one day in a dark dew chamber followed by two to three days in a lighted dew chamber at 20° C.) to permit spores to germinate and infect the leaf. The plants were then transferred to a greenhouse set at 20° C. for disease to develop. When disease symptoms were fully expressed on the 1st leaves of untreated plants, infection levels were assessed on a scale of 0 to 100 percent disease severity. Percent disease control was calculated using the ratio of disease severity on treated plants relative to untreated plants. Example E: Evaluation of Fungicidal Activity: Grape Powdery Mildew (Uncinula necator; Bayer Code […]) Grape seedlings (variety Carignane) were grown in soil-less Metro mix, with one plant per pot, and used in the test when approximately one month old. Plants were inoculated 24 hr after fungicide treatment by shaking spores from infected leaves over test plants. Plants were maintained in a greenhouse set at 20° C. until disease was fully developed. Fungicide formulation, application and disease assessment on the sprayed leaves followed the procedures as described in the Example A.

Erysiphe cichoracearum = assay: Powdery Mildew of Cucumber (ERYSCI) fungicidal activity; conditions: Golovinomyces cichoracearum, 24 h, 1DP (1 Day Protectant), read-out: ERYSCI Disease Control
Method: Technical grades of materials were dissolved in acetone, which were then mixed with nine volumes of H2O containing 110 ppm Triton X-100. The fungicide solutions were applied onto wheat seedlings using an automated booth sprayer to run-off. All sprayed plants were allowed to air dry prior to further handling. All fungicides were evaluated using the aforementioned method for their activity vs. all target diseases, unless stated otherwise. Wheat leaf blotch and brown rust activity were also evaluated using track spray applications, in which case the fungicides were formulated as EC formulations, containing 0.1% Trycol 5941 in the spray solutions. Wheat plants (variety Yuma) were grown from seed in a greenhouse in 50% mineral soil/50% soil-less Metro mix until the first leaf was fully emerged, with 7-10 seedlings per pot. These plants were inoculated with an aqueous spore suspension of Zymoseptoria tritici either prior to or after fungicide treatments. After inoculation the plants were kept in 100% relative humidity (one day in a dark dew chamber followed by two to three days in a lighted dew chamber at 20° C.) to permit spores to germinate and infect the leaf. The plants were then transferred to a greenhouse set at 20° C. for disease to develop. When disease symptoms were fully expressed on the 1st leaves of untreated plants, infection levels were assessed on a scale of 0 to 100 percent disease severity. Percent disease control was calculated using the ratio of disease severity on treated plants relative to untreated plants. Example F: Evaluation of Fungicidal Activity: Powdery Mildew of Cucumber (Erysiphe cichoracearum; Bayer Code […]) Cucumber seedlings (variety Bush Pickle) were grown in soil-less Metro mix, with one plant per pot, and used in the test when 12 to 14 days old. Plants were inoculated with a spore suspension 24 hr following fungicide treatments. After inoculation the plants remained in the greenhouse set at 20° C. until disease was fully expressed. Fungicide formulation, application and disease assessment on the sprayed leaves followed the procedures as described in the Example A.

[2] = tested on: Glomerella lagenarium; Anamorph: Colletotrichum lagenarium; assay: Cucumber Anthracnose (COLLLA) fungicidal activity; conditions: Colletotrichum orbiculare, 24 h, 1DP (1 Day Protectant), read-out: COLLLA Disease Control
Method: Technical grades of materials were dissolved in acetone, which were then mixed with nine volumes of H2O containing 110 ppm Triton X-100. The fungicide solutions were applied onto wheat seedlings using an automated booth sprayer to run-off. All sprayed plants were allowed to air dry prior to further handling. All fungicides were evaluated using the aforementioned method for their activity vs. all target diseases, unless stated otherwise. Wheat leaf blotch and brown rust activity were also evaluated using track spray applications, in which case the fungicides were formulated as EC formulations, containing 0.1% Trycol 5941 in the spray solutions. Wheat plants (variety Yuma) were grown from seed in a greenhouse in 50% mineral soil/50% soil-less Metro mix until the first leaf was fully emerged, with 7-10 seedlings per pot. These plants were inoculated with an aqueous spore suspension of Zymoseptoria tritici either prior to or after fungicide treatments. After inoculation the plants were kept in 100% relative humidity (one day in a dark dew chamber followed by two to three days in a lighted dew chamber at 20° C.) to permit spores to germinate and infect the leaf. The plants were then transferred to a greenhouse set at 20° C. for disease to develop. When disease symptoms were fully expressed on the 1st leaves of untreated plants, infection levels were assessed on a scale of 0 to 100 percent disease severity. Percent disease control was calculated using the ratio of disease severity on treated plants relative to untreated plants. Example N: Evaluation of Fungicidal Activity: Cucumber Anthracnose (Glomerella lagenarium; Anamorph: Colletotrichum lagenarium; Bayer Code COLLLA) Cucumber seedlings (variety Bush Pickle) were propagated in soil-less Metro mix, with each pot having one plant, and used in the test when 12 to 14 days old. Test plants were inoculated with an aqueous spore suspension of Colletotrichum lagenarium 24 hr after fungicide treatments. After inoculation the plants were kept in a dew room at 22° C. with 100% relative humidity for 48 hr to permit spores to germinate and infect the leaf. The plants were then transferred to a growth room set at 22° C. for disease to develop. Fungicide formulation, application and disease assessment on the sprayed leaves followed the procedures as described in the Example A.

| Compound | pest or weed control at 100 ppm [1] | pest or weed control at 100 ppm (Uncinula necator) | pest or weed control at 100 ppm (Erysiphe cichoracearum) | pest or weed control at 100 ppm [2] |
| --- | --- | --- | --- | --- |
| CCCCO[C@H]1CCOC[C@H](NC(=O)c2nccc(OC)c2OCOC(C)=O)C(=O)O[C@@H](C)[C@@H]1OCc1ccccc1 [Compound 2] | > 80% | < 80% | < 80% | > 80% |
| CCCCO[C@H]1CCOC[C@H](NC(=O)c2nccc(OC)c2OCOC(C)=O)C(=O)O[C@@H](C)[C@@H]1OC(=O)C(C)C [Compound 3] | > 80% | < 80% | – | < 80% |
| CCCCO[C@H]1CCOC[C@H](NC(=O)c2nccc(OC)c2OCOC(C)=O)C(=O)O[C@@H](C)[C@@H]1OC(=O)c1ccccc1 [Compound 4] | > 80% | < 80% | – | > 80% |
| CCCCO[C@H]1CCOC[C@H](NC(=O)c2nccc(OC)c2OCOC(C)=O)C(=O)O[C@@H](C)[C@@H]1OC(=O)C1CC1 [Compound 5] | < 80% | < 80% | – | < 80% |
| COc1ccnc(C(=O)N[C@H]2COCC[C@@H](OCC(C)C)[C@@H](OCC(C)C)[C@H](C)OC2=O)c1OCOC(C)=O [Compound 6] | > 80% | < 80% | – | > 80% |
| CCCCCO[C@H]1[C@H](C)OC(=O)[C@@H](NC(=O)c2nccc(OC)c2OCOC(C)=O)CCCC[C@@H]1Oc1ccccc1 [Compound 17] | > 80% | > 80% | < 80% | – |
| CCCO[C@H]1[C@H](C)OC(=O)[C@@H](NC(=O)c2nccc(OC)c2OCOC(C)=O)CCCC[C@@H]1Oc1ccccc1 [Compound 18] | > 80% | < 80% | < 80% | – |
| COc1ccnc(C(=O)N[C@H]2CCCC[C@H](Oc3ccccc3)[C@@H](Oc3ccccc3)[C@H](C)OC2=O)c1OCOC(C)=O [Compound 19] | > 80% | < 80% | < 80% | – |
| COc1ccnc(C(=O)N[C@H]2COCC[C@H](Cc3ccccc3)[C@@H](OCC(C)C)[C@H](C)OC2=O)c1OCOC(C)=O [Compound 20] | – | > 80% | < 80% | > 80% |
| COc1ccnc(C(=O)N[C@H]2COCC[C@H](Cc3ccccc3)[C@@H](OCC(C)C)[C@H](C)OC2=O)c1OC(C)=O [Compound 21] | – | > 80% | < 80% | > 80% |
| COc1ccnc(C(=O)N[C@H]2CCOC[C@H](Oc3ccccc3)[C@@H](Oc3ccccc3)[C@H](C)OC2=O)c1OCOC(C)=O [Compound 37] | > 80% | > 80% | – | > 80% |
